Experimental data from US9029542B2 (priority 2011, dated 2015).
Where “and” joins values, the source holds several entries; their conditions need not be identical. Equal entries are not always repeated. Where two headings read alike, the source gives them in different places.

How the values were obtained:
cockspur grass = assay: whole plant or invertebrate; type: in vivo; conditions: Echinochloa crus-galli
rape = assay: animal or person; type: in vivo
Sorghum = assay: whole plant or invertebrate; type: in vivo
Wheat = assay: whole plant or invertebrate; type: in vivo; conditions: Triticum aestivum
Radish = assay: whole plant or invertebrate; type: in vivo; conditions: Raphanus sativus
Cucumber = assay: whole plant or invertebrate; type: in vivo; conditions: Cucumis sativus
Capsella bursa-pastoris = assay: whole plant or invertebrate; type: in vivo; conditions: 600 h, read-out: weed clearing activity, Capsella bursa-pastoris Postemergence
Amaranthus retroflexus = assay: whole plant or invertebrate; type: in vivo; conditions: for pest or weed control at 150 g/ha: Amaranthus retroflexus, 600 h, read-out: weed clearing activity, Amaranthus retroflexus Postemergence
Eclipta prostrata = assay: whole plant or invertebrate; type: in vivo; conditions: for pest or weed control at 150 g/ha: Eclipta prostrata, 600 h, read-out: weed clearing activity, Eclipta prostrata Postemergence; for Weed clearing activity, Eclipta prostrata, Postemergence: in vivo
Abutilon theophrasti = assay: whole plant or invertebrate; type: in vivo; conditions: for pest or weed control at 150 g/ha: Abutilon theophrasti, 600 h, read-out: Postemergence weed clearing activity, Abutilon theophrasti
[1] = test system: weeds of the expanded weed killing spectrum; conditions: in vivo
[2] = read-out: inhibitory activity, Cockspur grass Root
[3] = read-out: inhibitory activity, Cockspur grass Stem
[4] = read-out: inhibitory activity, Rape Root
[5] = read-out: inhibitory activity, Rape Stem
[6] = read-out: inhibitory activity, Sorghum Root
[7] = read-out: inhibitory activity, Sorghum Stem
[8] = read-out: inhibitory activity, Wheat Root
[9] = read-out: inhibitory activity, Wheat Stem
[10] = read-out: inhibitory activity, Radish Root
[11] = read-out: inhibitory activity, Radish Stem
[12] = read-out: inhibitory activity, Cucumber Root
[13] = read-out: inhibitory activity, Cucumber Stem

Row | SMILES | inhibition at 100 µg/mL (cockspur grass; [2]) | inhibition at 100 µg/mL (cockspur grass; [3]) | inhibition at 100 µg/mL (rape; [4]) | inhibition at 100 µg/mL (rape; [5]) | inhibition at 100 µg/mL (Sorghum; [6]) | inhibition at 100 µg/mL (Sorghum; [7]) | inhibition at 100 µg/mL (Wheat; [8]) | inhibition at 100 µg/mL (Wheat; [9]) | inhibition at 100 µg/mL (Radish; [10]) | inhibition at 100 µg/mL (Radish; [11]) | inhibition at 100 µg/mL (Cucumber; [12]) | inhibition at 100 µg/mL (Cucumber; [13]) | pest or weed control at 150 g/ha (Capsella bursa-pastoris) | pest or weed control at 150 g/ha (Amaranthus retroflexus) | pest or weed control at 150 g/ha (Eclipta prostrata) | pest or weed control at 150 g/ha (Abutilon theophrasti) | Weed clearing activity, Eclipta prostrata, Postemergence (Eclipta prostrata) | further results
1 | Cc1cc(OCC(=O)OC(C)P2(=O)OCC(C)(C)CO2)ccc1Cl (stereo not drawn) [Compound 32, 2-(3-methyl-4-chlorophenoxyethylacyloxy)(methyl)methyl-5,5-dimethyl-1,3,2-dioxaphosphorinan-2-one phosphonate] | 0% | 0% | 90% | 90% | 0% | 0% | 0% | 0% | 90% | 60% | 60% | 90% | 70% | 60% | 60% | 70% |  | 
2 | Cc1cc(Cl)ccc1OCC(=O)OC(C)P1(=O)OCC(C)(C)CO1 (stereo not drawn) [Compound 34, 2-(2-methyl-4-chlorophenoxyethylacyloxy)(methyl)methyl-5,5-dimethyl-1,3,2-dioxaphosphorinan-2-one phosphonate] | 70% | 80% | 100% | 100% | 100% | 100% | 90% | 60% | 100% | 100% | 100% | 100% | 90% | 90% | 80% | 75% | 85% | Activity of expanded weed killing spectrum, Alligator alternanthera [1]: 60% and 70%; Activity of expanded weed killing spectrum, Ammania [1]: 50% and 60%; Activity of expanded weed killing spectrum, Cabbage [1]: 70%; Activity of expanded weed killing spectrum, Capsella bursa-pastoris [1]: 85%; Activity of expanded weed killing spectrum, Cayenne pepper [1]: 70%; Activity of expanded weed killing spectrum, Cucumis sativus [1]: 60% and 70%; Activity of expanded weed killing spectrum, Monochoria [1]: 30% and 60%; Activity of expanded weed killing spectrum, Pakchoi [1]: 70%; Activity of expanded weed killing spectrum, Pigweed [1]: 70% and 75%; Activity of expanded weed killing spectrum, Rape [1]: 85%; Activity of expanded weed killing spectrum, Rumex acetosa [1]: 70% and 75%; Activity of expanded weed killing spectrum, Tomato [1]: 60% and 70%; Activity of expanded weed killing spectrum, Vicia cracca [1]: 70%
3 | CC(OC(=O)COc1ccc(F)cc1Cl)P1(=O)OCC(C)(C)CO1 (stereo not drawn) [Compound 37, 2-(2-chloro-4-fluorphenoxyethylacyloxy)(methyl)methyl-5,5-dimethyl-1,3,2-dioxaphosphorinan-2-one phosphonate] | 0% | 0% | 100% | 100% | 0% | 0% | 60% | 30% | 90% | 30% | 60% | 30% | 95% | 90% | 85% | 90% | 60% and 85% | Weed clearing activity, Amaranthus retroflexus, Postemergence (Amaranthus retroflexus; in vivo): 60%; Weed clearing activity, Abutilon theophrasti, Postemergence (Abutilon theophrasti; in vivo): 70%; Activity of expanded weed killing spectrum, Alligator alternanthera [1]: 60%; Activity of expanded weed killing spectrum, Ammania [1]: 60%; Activity of expanded weed killing spectrum, Cabbage [1]: 70%; Activity of expanded weed killing spectrum, Cayenne pepper [1]: 60% and 75%; Activity of expanded weed killing spectrum, Cucumis sativus [1]: 60% and 70%; Activity of expanded weed killing spectrum, Eclipta prostrata [1]: 60%; Activity of expanded weed killing spectrum, Monochoria [1]: 50%; Activity of expanded weed killing spectrum, Rape [1]: 70% and 75%; Activity of expanded weed killing spectrum, Rumex acetosa [1]: 70% and 75%; Activity of expanded weed killing spectrum, Vicia cracca [1]: 70%
4 | CC(Oc1ccc(Cl)cc1)C(=O)OC(C)P1(=O)OCC(C)(C)CO1 (stereo not drawn) [Compound 38, 2-(4-chlorophenoxyisopropylacyloxy)(methyl)methyl-5,5-dimethyl-1,3,2-dioxaphosphorinan-2-one phosphonate] | 0% | 0% | 100% | 100% | 0% | 0% | 30% | 30% | 70% | 30% | 60% | 30% | 70% | 50% | 60% | 60% |  | 
5 | CC(Oc1ccc(Cl)cc1Cl)C(=O)OC(C)P1(=O)OCC(C)(C)CO1 (stereo not drawn) [Compound 39, 2-(2,4-dichlorophenoxyisopropylacyloxy)(methyl)methyl-5,5-dimethyl-1,3,2-dioxaphosphorinan-2-one phosphonate] | 0% | 0% | 100% | 40% | 70% | 60% | 60% | 60% | 100% | 30% | 80% | 30% | 80% | 70% | 60% | 70% |  | 
6 | CC(Oc1ccc(F)cc1Cl)C(=O)OC(C)P1(=O)OCC(C)(C)CO1 (stereo not drawn) [Compound 41, 2-(2-chloro-4-fluorphenoxyisopropylacyloxy)(methyl)methyl-5,5-dimethyl-1,3,2-dioxaphosphorinan-2-one phosphonate] | 0% | 0% | 100% | 90% | 70% | 70% | 70% | 40% | 80% | 60% | 80% | 60% | 90% | 60% | 60% | 70% | 60% | 
7 | CC(Oc1ccc(F)cc1)C(=O)OC(C)P1(=O)OCC(C)(C)CO1 (stereo not drawn) [Compound 44, 2-(4-fluorphenoxyisopropylacyloxy)(methyl)methyl-5,5-dimethyl-1,3,2-dioxaphosphorinan-2-one phosphonate] | 0% | 0% | 100% | 30% | 0% | 0% | 0% | 0% | 80% | 30% | 30% | 30% | 70% | 50% | 60% | 60% |  | 
8 | CC(OC(=O)COc1cccc(C(F)(F)F)c1)P1(=O)OCC(C)(C)CO1 (stereo not drawn) [Compound 45, 2-(3-trifluormethylphenoxyethylacyloxy)(methyl)methyl-5,5-dimethyl-1,3,2-dioxaphosphorinan-2-one phosphonate] | 0% | 0% | 85% | 30% | 70% | 60% | 80% | 60% | 90% | 60% | 98% | 50% | 85% | 50% | 50% | 75% |  | 
